Test results published in PubChem BioAssay (NCI).
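Five concentrations, 48 hours, 96-well plates. At the GI50, growth is halved. TGI is the concentration that stops growth completely.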

system: OVCAR-4 ovarian; assay: inhibition of tumour cell growth, NCI panel, 48 h

Row | SMILES | TGI [µM]
1 | O=C(NN1C(=O)CSC1c1ccc(Cl)c(Cl)c1)c1ccncc1 (stereo not drawn) | > 100
2 | Clc1cccc(C2ON=C(c3ccccc3)N2C23CC4CC(CC(C4)C2)C3)c1Cl (stereo not drawn) | > 10
3 | CCN(CC(=O)O)CC(=O)O | > 100
4 | Cc1cc(C)nc(NS(=O)(=O)c2ccc(Nc3c4ccccc4nc4c(C(=O)NCCO)cccc34)cc2)n1 | 97.5
5 | COC1OC2COC(C)(C)OC2C2OC(C)(C)OC12 (stereo not drawn) | > 100
6 | CCNC(=S)N/N=C/c1ccccn1 | 4.98
7 | C=C1CC=CC(C)(C)C1C/C=C(\C)C(O)CBr (stereo not drawn) | > 100
8 | O=C(NCCCNCCCCNCCCNC(=O)C(F)(F)F)C(F)(F)F | > 100
9 | CCOC(=O)C(C)NC(=O)N(C)C12CC3CC(CC(C3)C1)C2 (stereo not drawn) | > 472
10 | O=C(O)c1cc2ccccc2c(S(=O)(=O)O)c1O | > 100
11 | O=c1c2cc3c(=O)n(CCc4ccccc4CO)c(=O)c3cc2c(=O)n1CCc1ccccc1CO | > 100
12 | COC(=O)c1sc2ncc3c(c2c1N)CC(C)CC3 (stereo not drawn) | > 100
13 | CCc1cc(=O)n(/C(C)=C/c2ccccc2)n1C | > 100
14 | CCOC(=O)c1[nH]c2nc(SC)nc(NC)c2c1N | > 100
15 | Cc1cccc(NC(Nc2cccc(C)c2)=C(C(Cl)=C(Cl)Cl)[N+](=O)[O-])c1 | > 82
16 | CC1=CCC[C@H]2[C@](C)(CC3=CC(=O)C4SCCSC4C3=O)[C@@H](C)CC[C@]12C (stereo partly drawn) | > 100
17 | C/C(=N\Nc1nc2ccccc2s1)c1cccnn1 | > 100
18 | COC(=O)C1=C(C(=O)OC)C2(C)CCC(=O)C1O2 (stereo not drawn) | > 10
19 | FC(F)=C(c1ccc(-c2ccc(Cl)cc2)cc1)C(F)(F)F | 33.5
20 | N/C(CSCCSC/C(N)=N/O)=N\O | > 100

system: SN12C renal; assay: inhibition of tumour cell growth, NCI panel, 48 h

Row | SMILES | TGI [µM] | GI50 [µM]
21 | CC(O)(C(=O)N(O)c1ccc(Cl)cc1)c1ccc(Cl)cc1 (stereo not drawn) | > 100 | –
22 | CC1(C)OC(CCO)CN1C(=O)OCc1ccccc1 (stereo not drawn) | > 100 | –
23 | COc1cc2c(cc1OCCCOc1cc3c(cc1OC)C(=O)N1CCC[C@H]1CN3)N=C[C@@H]1CCCN1C2=O | > 33 | –
24 | COc1ccc(N2C(=O)C3c4[nH]c5ccccc5c4C4C(C)CCCC4C3C2=O)cc1 (stereo not drawn) | > 100 | –
25 | CCOC(=O)C1=C(C)NC(=O)N([N+](=O)[O-])C1c1ccccc1C(F)(F)F (stereo not drawn) | > 100 | –
26 | Brc1ccc2c(c1)-c1nc3c(cc1CC2)CCc1ccc(Br)cc1-3 | > 100 | –
27 | CCOC(=O)C(NC(=O)c1ccc(N=NN(C)C)cc1)C(C)C (stereo not drawn) | > 100 | –
28 | COc1cc(CCCOC2OC(COC3OCC(O)C(O)C3O)C(O)C(O)C2O)cc2cc(-c3ccc4c(c3)OCO4)oc12 (stereo not drawn) | 99.5 | –
29 | CCOC(=O)c1ccc(C(=O)/C(C(=O)OC(C)(C)C)=C2\CCCN2C)n1C | > 100 | –
30 | O=[N+]([O-])c1ccc2nc3c(nc2c1)-c1c2ccccc2cc2cccc-3c12 | > 100 | –
31 | COc1ccc(CN2C(=O)C(=O)N(C)C2=O)c2ccccc12 | > 10 | –
32 | OCC1OC(O[C@H]2CN3[C@H](O)[C@@H](O)[C@H](O)[C@H]3C2O)C(O)C(O)C1O (stereo partly drawn) | > 100 | –
33 | CC1OC(n2cc(F)c(=O)[nH]c2=O)C(O[Si](C)(C)C(C)(C)C)C1O[Si](C)(C)C(C)(C)C (stereo not drawn) | 24.9 | –
34 | CCOC(=O)c1c(NC(=S)Nc2ccc(C)cc2)sc2c1CCN(C)C2 | > 100 | –
35 | c1ccc([P+](Cc2csnn2)(c2ccccc2)c2ccccc2)cc1 | > 100 | –
36 | c1ccc(-c2ccc(N=NN3CCCC3)cc2)cc1 | > 100 | –
37 | COc1cc2c(cc1O)CC[n+]1cc3c(OC)c(OC)ccc3cc1-2 | > 100 | –
38 | NS(=O)(=O)c1nnc(NSc2ccc([N+](=O)[O-])cc2)s1 | > 100 | –
39 | Nc1nc(Nc2ccc(OCc3cccc(F)c3)cc2)c2c(n1)[nH]c1ccc(O)cc12 | 4.56 | 2.08
40 | CCC1(CC)C(=O)NC(=S)N=C1N | > 100 | –
41 | CC1=NC(C)(C)N(O)C1(C)C | > 100 | –
42 | O=c1oc2ccccc2c2nc3ccccc3cc12 | > 100 | –

Row | SMILES | TGI [µM] | GI50 [µM]
43 | O=C(NN1C(=O)CSC1c1ccc(Cl)c(Cl)c1)c1ccncc1 (stereo not drawn) | > 100 | –
44 | Clc1cccc(C2ON=C(c3ccccc3)N2C23CC4CC(CC(C4)C2)C3)c1Cl (stereo not drawn) | > 10 | –
45 | CCN(CC(=O)O)CC(=O)O | > 100 | –
46 | Cc1cc(C)nc(NS(=O)(=O)c2ccc(Nc3c4ccccc4nc4c(C(=O)NCCO)cccc34)cc2)n1 | > 100 | –
47 | COC1OC2COC(C)(C)OC2C2OC(C)(C)OC12 (stereo not drawn) | 67.1 | –
48 | CCNC(=S)N/N=C/c1ccccn1 | 41 | –
49 | O=C1NN=C(c2c[nH]c3ccccc23)CC1NCc1ccccc1 (stereo not drawn) | > 100 | –
50 | C=C1CC=CC(C)(C)C1C/C=C(\C)C(O)CBr (stereo not drawn) | > 100 | –
51 | O=C(NCCCNCCCCNCCCNC(=O)C(F)(F)F)C(F)(F)F | > 100 | –
52 | CCOC(=O)C(C)NC(=O)N(C)C12CC3CC(CC(C3)C1)C2 (stereo not drawn) | > 500 | –
53 | O=C(O)c1cc2ccccc2c(S(=O)(=O)O)c1O | > 100 | –
54 | O=c1c2cc3c(=O)n(CCc4ccccc4CO)c(=O)c3cc2c(=O)n1CCc1ccccc1CO | > 100 | –
55 | COC(=O)c1sc2ncc3c(c2c1N)CC(C)CC3 (stereo not drawn) | > 100 | –
56 | CCc1cc(=O)n(/C(C)=C/c2ccccc2)n1C | > 100 | –
57 | CCOC(=O)c1[nH]c2nc(SC)nc(NC)c2c1N | > 100 | –
58 | Cc1cccc(NC(Nc2cccc(C)c2)=C(C(Cl)=C(Cl)Cl)[N+](=O)[O-])c1 | 24 | –
59 | CC1=CCC[C@H]2[C@](C)(CC3=CC(=O)C4SCCSC4C3=O)[C@@H](C)CC[C@]12C (stereo partly drawn) | 28.8 | –
60 | C/C(=N\Nc1nc2ccccc2s1)c1cccnn1 | > 100 | –
61 | COC(=O)C1=C(C(=O)OC)C2(C)CCC(=O)C1O2 (stereo not drawn) | > 10 | –
62 | FC(F)=C(c1ccc(-c2ccc(Cl)cc2)cc1)C(F)(F)F | 45.4 | –
63 | N/C(CSCCSC/C(N)=N/O)=N\O | > 100 | –

system: HOP-62 NSCLC; assay: inhibition of tumour cell growth, NCI panel, 48 h

Row | SMILES | TGI [µM]
64 | CC(O)(C(=O)N(O)c1ccc(Cl)cc1)c1ccc(Cl)cc1 (stereo not drawn) | 93
65 | CCOP(=O)(OCC)c1cc(-c2ccccc2)ccc1N | > 100
66 | COc1cc2c(cc1OCCCOc1cc3c(cc1OC)C(=O)N1CCC[C@H]1CN3)N=C[C@@H]1CCCN1C2=O | 0.892
67 | COc1ccc(N2C(=O)C3c4[nH]c5ccccc5c4C4C(C)CCCC4C3C2=O)cc1 (stereo not drawn) | > 96.2
68 | CCOC(=O)C1=C(C)NC(=O)N([N+](=O)[O-])C1c1ccccc1C(F)(F)F (stereo not drawn) | > 100
69 | O=c1c(Cc2ccccc2)c(-c2ccccc2)[nH]n1C1=NCCN1 | > 100
70 | Brc1ccc2c(c1)-c1nc3c(cc1CC2)CCc1ccc(Br)cc1-3 | > 100
71 | CN1c2ccccc2C(=O)NC12CCN(CC1COc3ccccc3O1)CC2 (stereo not drawn) | > 100
72 | CCOC(=O)C(NC(=O)c1ccc(N=NN(C)C)cc1)C(C)C (stereo not drawn) | > 100
73 | COc1cc(CCCOC2OC(COC3OCC(O)C(O)C3O)C(O)C(O)C2O)cc2cc(-c3ccc4c(c3)OCO4)oc12 (stereo not drawn) | > 175
74 | CCOC(=O)c1ccc(C(=O)/C(C(=O)OC(C)(C)C)=C2\CCCN2C)n1C | > 100
75 | O=[N+]([O-])c1ccc2nc3c(nc2c1)-c1c2ccccc2cc2cccc-3c12 | 77.2
76 | COc1ccc(CN2C(=O)C(=O)N(C)C2=O)c2ccccc12 | > 10
77 | OCC1OC(O[C@H]2CN3[C@H](O)[C@@H](O)[C@H](O)[C@H]3C2O)C(O)C(O)C1O (stereo partly drawn) | > 100
78 | CC1OC(n2cc(F)c(=O)[nH]c2=O)C(O[Si](C)(C)C(C)(C)C)C1O[Si](C)(C)C(C)(C)C (stereo not drawn) | 43.7
79 | CCOC(=O)c1c(NC(=S)Nc2ccc(C)cc2)sc2c1CCN(C)C2 | > 100
80 | c1ccc([P+](Cc2csnn2)(c2ccccc2)c2ccccc2)cc1 | > 100
81 | c1ccc(-c2ccc(N=NN3CCCC3)cc2)cc1 | > 100
82 | NS(=O)(=O)c1nnc(NSc2ccc([N+](=O)[O-])cc2)s1 | > 100
83 | CCC1(CC)C(=O)NC(=S)N=C1N | > 100

Row | SMILES | TGI [µM]
84 | CC1=NC(C)(C)N(O)C1(C)C | > 100
85 | Clc1cccc(C2ON=C(c3ccccc3)N2C23CC4CC(CC(C4)C2)C3)c1Cl (stereo not drawn) | > 10
86 | CCN(CC(=O)O)CC(=O)O | > 100
87 | Cc1cc(C)nc(NS(=O)(=O)c2ccc(Nc3c4ccccc4nc4c(C(=O)NCCO)cccc34)cc2)n1 | 71.3
88 | COC1OC2COC(C)(C)OC2C2OC(C)(C)OC12 (stereo not drawn) | 61.1
89 | CCNC(=S)N/N=C/c1ccccn1 | 54
90 | O=C1NN=C(c2c[nH]c3ccccc23)CC1NCc1ccccc1 (stereo not drawn) | > 100
91 | C=C1CC=CC(C)(C)C1C/C=C(\C)C(O)CBr (stereo not drawn) | > 100
92 | O=C(NCCCNCCCCNCCCNC(=O)C(F)(F)F)C(F)(F)F | > 100
93 | CCOC(=O)C(C)NC(=O)N(C)C12CC3CC(CC(C3)C1)C2 (stereo not drawn) | > 422
94 | O=C(O)c1cc2ccccc2c(S(=O)(=O)O)c1O | > 100
95 | COC(=O)c1sc2ncc3c(c2c1N)CC(C)CC3 (stereo not drawn) | > 100
96 | CCc1cc(=O)n(/C(C)=C/c2ccccc2)n1C | > 100
97 | CCOC(=O)c1[nH]c2nc(SC)nc(NC)c2c1N | > 100
98 | Cc1cccc(NC(Nc2cccc(C)c2)=C(C(Cl)=C(Cl)Cl)[N+](=O)[O-])c1 | 41.7
99 | CC1=CCC[C@H]2[C@](C)(CC3=CC(=O)C4SCCSC4C3=O)[C@@H](C)CC[C@]12C (stereo partly drawn) | 31.1
100 | C/C(=N\Nc1nc2ccccc2s1)c1cccnn1 | 14.5
101 | COC(=O)C1=C(C(=O)OC)C2(C)CCC(=O)C1O2 (stereo not drawn) | > 10
102 | N/C(CSCCSC/C(N)=N/O)=N\O | > 100
